According to PubChem BioAssay AID1159559 (GlaxoSmithKline (GSK), 2015):
pIC50: −log10 of the molar value. Activity calls are given as the source filed them.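 Rule for the calls: active = compounds whose IC50 against parasite growth in infected mouse cells is below 50000 nM; inactive = the rest.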

Tested on: T. cruzi Tulahuen in NIH-3T3, beta-gal fluorescence, 4 d
Test: anti-Chagas amastigote proliferation inhibitors – cell-based (AID 1159559)

| SMILES | pIC50 | IC50 |
| --- | --- | --- |
| O=S(=O)(c1ccccc1C(F)(F)F)N1CCN(Cc2ccc(-n3ccnc3)cc2)CC1 | 6.60 | – |
| Cc1nn(-c2nc(N)nc(-c3ccccn3)n2)c(C)c1Cc1ccccc1 | 5.60 | – |
| Cc1c(C(C)NC(=O)Nc2cccc(Cl)c2)sc2ncnn12 (stereo unspecified) | 6.89 | – |
| Cn1nc(-c2ccc(NC(=O)Cc3ccccc3Cl)cc2)c2c(N)ncnc21 | 5.70 | – |
| N#Cc1c(Oc2cccc(Cl)c2)cccc1[N+](=O)[O-] | 6.49 | – |
| COc1ccc(-c2cnc(NC(=O)c3cc(-c4ccccn4)n[nH]3)n2C)cc1 | 5.49 | – |
| CN(Cc1ccccc1)Cc1nnnn1C1CCN(Cc2ccc(-n3ccnc3)cc2)CC1 | 6.40 | – |
| COc1cc(Cl)c(C)cc1NC(=O)c1ccc([N+](=O)[O-])s1 | 6.20 | – |
| Cc1ccccc1CNc1cc(C2CC2)nc(-c2nccn2C)n1 | 6.10 | – |
| O=C(NCCc1cccnc1)c1ccc(-c2ccccc2F)o1 | 7.00 | – |
| CN(C)c1ccc(-c2cc3nccnc3c(OC[C@H]3CCCNC3)n2)cn1 | 5.80 | – |
| Cc1c(C(=O)NCCCCn2ccnc2)oc2c(C)cccc12 | 6.70 | – |
| CC1(Oc2cncc(Cl)c2)CCN(Cc2cc3ccccc3[nH]2)C1 (stereo unspecified) | 6.00 | – |
| COc1ccc(NS(=O)(=O)c2cc(-c3cc(C)[nH]n3)ccc2C)cc1OC | 5.89 | – |
| Cc1cc(-c2cccc3ccccc23)nc2nc(N)nc(N)c12 | 4.40 | – |
| CCc1nn(-c2ncc(F)c(NC(C)C)n2)c(N)c1C1CCCCC1 | 5.49 | – |
| Cc1nc(C(=O)Nc2ccc3c(c2)OCO3)nn1-c1ccc(Cl)cc1 | 5.20 | – |
| Cc1cn[nH]c1C1CCCN(Cc2nc3ccccc3n2C)C1 (stereo unspecified) | 5.49 | – |
| Cc1nn(C2CCS(=O)(=O)C2)c(C)c1CN(C)C(=O)C=Cc1sc2ccccc2c1Cl (stereo unspecified) | 6.20 | – |
| Cc1cc(C)n(-c2nc(NC(C)(C)C)nc(N3CCOCC3)n2)n1 | 5.30 | – |
| Cn1cc(CN2CCN(c3ccc4c(c3)CCN(C(=O)[C@H]3C[C@@H]3c3ccccc3)CC4)CC2)cn1 | 5.80 | – |
| Cc1ccc(NC(=O)c2ccc(Cl)c(NC(=O)c3ccc([N+](=O)[O-])cc3)c2)cc1 | 6.20 | – |
| CC(C)C[C@H](NC(=O)c1ccc(-c2ccccc2)o1)C(=O)NC1(C#N)CC1 | 4.49 | – |

| SMILES | pIC50 | IC50 |
| --- | --- | --- |
| Cc1cc(C#N)c([N+](=O)[O-])cc1Br | 6.70 | – |
| c1ccc2[nH]c(-c3ccc(N4CCCC4)nc3)nc2c1 | 6.00 | – |
| Cc1cccnc1NC(=O)c1cccc(OCc2c(C)noc2C)c1 | – | > 50000 nM (inactive) |
| COCc1cc(Nc2ccc(Cl)cc2)nc(-c2ccccn2)n1 | 5.80 | – |
| Cc1ccc(S(=O)(=O)Cn2nnnc2C(c2cccnc2)N2CCN(c3ccccc3)CC2)cc1 (stereo unspecified) | 6.30 | – |
| CCC(CC)C(=O)Nc1cccc(C(=O)Nc2nnc(C3CCCCC3)s2)c1 | 5.00 | – |
| Cc1nccn1C1CCCN(C(=O)c2cc3c(F)cccc3s2)C1 (stereo unspecified) | 6.20 | – |
| CC(=O)NC1(c2ccccc2)CCN(CC(=O)Nc2ccccc2-c2ccccc2)CC1 | 5.89 | – |
| CN(Cc1nnnn1C1CCN(Cc2ccc(-n3ccnc3)cc2)CC1)c1ccc(F)cc1F | 6.49 | – |
| O=S(=O)(NCC(c1cccnc1)N1CCN(c2ccc(F)cc2)CC1)c1cccs1 (stereo unspecified) | 6.80 | – |
| OCC1CCCCN1c1cc(-c2ccccn2)nc(Nc2ccccc2)n1 (stereo unspecified) | 6.10 | – |
| N#Cc1ccc(Br)cc1[N+](=O)[O-] | 6.60 | – |
| COc1cnc2ccc(=O)n(CCN3CCC(NC(=O)c4ccc(Cl)cc4)CC3)c2c1 | 6.89 | – |
| Cn1c(CC(=O)NNC(=O)c2ccc3ccccc3n2)nc2ccccc21 | 5.49 | – |
| O=C(c1cccc(Cl)c1Cl)N1CCn2c1nc(-c1ccncc1)cc2=O | 6.80 | – |
| Fc1ccc(Nc2nc(-c3ccccn3)cs2)cc1 | 5.60 | – |
| COc1ccc(C2CC(c3ccccc3Cl)=NN2C(=O)CNC(=O)C2CCCC2)cc1 (stereo unspecified) | 5.49 | – |
| N#Cc1cccc(CN2CCC(N(Cc3cccnc3)C(=O)c3cc(F)c(F)cc3F)CC2)c1 | 6.40 | – |
| N#Cc1cnc(Nc2cccc(CCN3CCOCC3)c2)nc1Nc1ccccc1C(N)=O | 5.89 | – |
| CCS(=O)(=O)Nc1ccc(C2=NN(C(=O)c3cccs3)C(c3ccccc3OC)C2)cc1 (stereo unspecified) | 5.10 | – |
| CCOc1cc(NCCCN2CCN(C)CC2)c2ncccc2c1 | 5.80 | – |
| COc1ccccc1-c1c(C)[nH]c2nc(N)nc(C)c12 | 6.80 | – |
| CN(C)CCOc1ccc(N2CCN(S(=O)(=O)c3ccc(Cl)cc3)CC2)cc1 | 6.20 | – |

| SMILES | pIC50 | IC50 |
| --- | --- | --- |
| CCn1c(-c2nonc2N)nc2c([C@@H](C)O)ncc(O[C@H](CN)c3ccccc3)c21 | 5.10 | – |
| O=C(CSc1nnc(-c2ccc3c(c2)OCO3)o1)N(Cc1ccco1)CC(F)(F)F | 5.00 | – |
| Cc1nn(-c2ccccc2)nc1CNC(=O)CN(Cc1ccccn1)Cc1ccccn1 | 5.40 | – |
| Cc1ccccc1NS(=O)(=O)c1ccc2[nH]cc(C(=O)NC3CCCCC3)c(=O)c2c1 | 5.00 | – |
| c1ccc2sc(Nc3nc4ncccc4[nH]3)nc2c1 | 6.00 | – |
| O=C1CN(C2CCCc3c(OCc4ccncc4)cccc32)C(=O)N1C1CCCCC1 (stereo unspecified) | 6.60 | – |
| CC(c1ccc2c(c1)CCCC2)N(C)c1ncc2c(N)nc(N)nc2n1 (stereo unspecified) | 7.49 | – |
| O=C(CCc1ccc(-c2ccccc2)o1)N1CCN(c2ccc(O)cc2)CC1 | 5.49 | – |
| Cc1ccc(C)c(-n2nnnc2Sc2nc([N+](=O)[O-])nn2C)c1 | 6.30 | – |
| COc1cccc(Nc2cc(C)nc(-c3ccccn3)n2)c1 | 5.49 | – |
| CCOc1cnn(C)c(=O)c1Nc1ccc(C(=O)NCc2ccc(F)cc2)cc1 | 6.60 | – |
| CN(C)S(=O)(=O)c1ccc(Cl)c(C(=O)Nc2nc(-c3ccccn3)cs2)c1 | 5.80 | – |
| COc1ccc(C(=O)[C@H]2C[C@@H]2CN(Cc2ccccn2)Cc2ccccn2)cc1 | 5.80 | – |
| Cc1cc(NC(=O)C2CCCCC2)n(-c2nc3c(c(=O)[nH]2)CCC3)n1 | 6.49 | – |
| CNC(=O)C1Cc2ccccc2N1C(=O)Cc1ccc(OC)cc1 (stereo unspecified) | – | > 50000 nM (inactive) |
| CCNc1cc(-c2ccccn2)nc(Nc2ccc(OC)cc2)n1 | 6.20 | – |
| CNC(=O)C1Cc2ccccc2N1C(=O)Cc1ccc(F)cc1 (stereo unspecified) | – | > 50000 nM (inactive) |
| Cc1nc2nc(C)c(Cc3ccc(C(C)C)cc3)c(=O)n2[nH]1 | 6.30 | – |
| CN1CCC(N(C)c2nccc(N3CCN(C(=O)c4cccc(-c5cccnc5)c4)CC3)n2)CC1 | 6.49 | – |
| CNC(=O)C1Cc2ccccc2N1C(=O)Cc1ccccc1 (stereo unspecified) | – | > 50000 nM (inactive) |
| Cc1[nH]nc(C(F)(F)F)c1NC(=O)CCn1cc(Cl)c([N+](=O)[O-])n1 | 5.10 | – |
| O=c1cc(NCCCNCc2cc(C(F)(F)F)cs2)[nH]c2ccccc12 | 5.10 | – |
| CC(C)(C)CC(=O)NCCc1csc(-c2ccc(F)cc2)n1 | 5.89 | – |

| SMILES | pIC50 | IC50 |
| --- | --- | --- |
| O=C(Nc1ccccc1)Nc1nc(-c2ccccn2)cs1 | 6.20 | – |
| Cc1cc(NC(=O)c2ccc([N+](=O)[O-])s2)ccc1Br | 6.60 | – |
| c1ccc(Nc2nc(-c3ccccn3)cc(N3CCOCC3)n2)cc1 | 5.70 | – |
| O=C(NCc1nnc2n1CCCCC2)c1csc(-c2ccccc2)n1 | 5.60 | – |
| c1ccc(Nc2nc3ccccc3[nH]2)nc1 | 5.10 | – |
| COc1ccc(S(=O)(=O)NCc2ccc(-c3ccc(CN(C)CCO)cc3)cc2)cc1 | 7.40 | – |
| O=C(C1CCCCC1)N1CCN(c2nnc(-c3ccccc3)c3ccccc23)CC1 | 6.00 | – |
| CS(=O)(=O)c1ccc(Nc2nccc(Nc3n[nH]c4ccc(F)cc34)n2)c(F)c1 | 5.10 | – |
| Cc1ccccc1NS(=O)(=O)c1ccc2[nH]cc(C(=O)NC3CCCC3)c(=O)c2c1 | 4.60 | – |
| Cn1ccnc1-c1nc(NCc2ccccc2Cl)cc(C2CC2)n1 | 6.20 | – |
| Cc1cc(C)cc(NS(=O)(=O)c2cc(-c3cc(C)[nH]n3)ccc2C)c1 | 6.00 | – |
| CN1C(=O)c2ccccc2Sc2ccc(NC(=O)NCc3ccco3)cc21 | 5.00 | – |
| CC(C)S(=O)(=O)c1ccc(-c2cnc(N)c3cc(-c4ccnc(N)n4)ccc23)cc1 | 6.10 | – |
| COc1cc(-c2noc(CC#N)n2)ccc1OC(F)F | 4.40 | – |
| COc1cc(Nc2nccc(Nc3onc(C)c3C)n2)cc(S(=O)(=O)C2CCOCC2)c1 | 5.20 | – |
| CNc1cncc(C2CCCN2C(=O)Cc2coc3cc(C)ccc23)n1 (stereo unspecified) | 6.80 | – |
| COc1ccc2ncc(=O)n(CCN3CC[C@H](NCc4ncc(Cl)c5[nH]ncc45)[C@H](O)C3)c2n1 | 5.40 | – |
| N#Cc1cc(-c2ccnc(Nc3cccc(CN4CCOCC4)c3)n2)ccc1NCCN | 5.10 | – |
| COc1cc(OC)cc(C(NS(=O)(=O)c2ccc(Cl)c(C(F)(F)F)c2)c2nccn2C)c1 (stereo unspecified) | 5.40 | – |
| CCN(Cc1nc2ccc(C(=O)N3CCN(c4ncccn4)CC3)cc2[nH]1)C1CCCc2cccnc21 (stereo unspecified) | 5.89 | – |
| CCC(=O)Nc1ccc(-c2nc3ccc(Cl)cc3[nH]2)cc1 | 5.70 | – |
| NCc1csc(Nc2cc(Oc3ccccc3)ncn2)n1 | 4.49 | – |
| Cc1cc(N(C)C)nc(Nc2ccccc2C)n1 | 5.80 | – |

| SMILES | pIC50 | IC50 |
| --- | --- | --- |
| Cc1cc(C)nc(N2CCC(N(Cc3cccnc3)C(=O)c3cccc(C#N)c3)CC2)n1 | 6.49 | – |
| Cc1cccc(Nc2nc(-c3ccccn3)cs2)n1 | 6.20 | – |
| O=c1[nH]ccc2ccc(-c3ccncc3)cc12 | 6.70 | – |
| O=C(Nc1ccc(Br)cn1)c1ccc(Cn2cnc([N+](=O)[O-])n2)cc1 | 6.80 | – |
| CC(C)(C)Nc1nc(Nc2ccc3c(c2)CS(=O)(=O)C3)nc2[nH]ccc12 | 6.00 | – |
| O=C(Cn1cnc([N+](=O)[O-])n1)Nc1ccc(Cl)cc1C(=O)c1ccccc1 | 6.60 | – |
| CCc1c(C)nc(-n2nc(C)cc2NC(=O)COc2ccccc2F)[nH]c1=O | 6.20 | – |
| O=C(NCC1CCCCC1)c1cc(=O)c2ccccc2o1 | 6.40 | – |
| O=C(COc1ncnc2cc([N+](=O)[O-])ccc12)NC(=O)NC1CCCCC1 | 5.89 | – |
| COCc1cc(Nc2ccccc2)nc(-c2ccccn2)n1 | 5.30 | – |
| CCOc1ccc(CN(C)Cc2nc(N)nc(Nc3ccc(C)cc3)n2)cc1 | 5.20 | – |
| COc1ccc(Cc2nc(-c3ncc4cccnc4c3O)n[nH]2)cc1OC | 5.89 | – |
| O=C(Cc1ccccc1)Nc1[nH]nc2sc(C(=O)NC3CCCC3)cc12 | 5.10 | – |
| CN(Cc1ccc(F)cc1)c1ccc(OCC(=O)N2CCCCC2c2cccnc2)nn1 (stereo unspecified) | 6.49 | – |
| COC(=O)c1ccc(-c2cnc3ccc(NCc4ccccn4)nn23)cc1 | 5.10 | – |
| COc1ccccc1C=CCN1C[C@H]2CCC[C@@H](C1)C2(O)c1cccnc1 (stereo partly specified) | 7.30 | – |
| Nc1ncnc2c1ncn2[C@@H]1O[C@H](CO)C[C@H]1O | 6.00 | – |
| O=C(COc1ccccc1)Nc1ccccc1C(=O)Nc1nccs1 | – | > 50000 nM (inactive) |
| COc1ccc(-c2cc(C)no2)cc1S(=O)(=O)Nc1ccc(F)c(Cl)c1 | 5.80 | – |
